# Measurements from article PMC8980701 (Neuropharmacology, 2020).
# Where a name gives a salt, the structure may show the parent alone.
# Tests used:
# Format in all cases: in vivo, male Sprague-Dawley rats
# [1] = test system: cocaine self-administration; experiment: Cocaine self-administration; conditions: for Active Lever Presses / Inactive Lever Presses: cocaine 0.25 mg/kg/inf, mean ± SEM
# [2] = test system: cocaine-seeking behavior; experiment: Cocaine-seeking behavior test
# [3] = Pharmacokinetics in plasma after single s.c. dose, alone or in combination; conditions: for half-life: t1/2; for concentration at 0 h / concentration at 15 min / concentration at 30 min / concentration at 60 min / concentration at 120 min / concentration at 180 min / concentration at 240 min / concentration at 360 min: Plasma concentration
# [4] = lorcaserin 0.5 mg/kg s.c., 15 min pretreatment
# [5] = lorcaserin 1 mg/kg s.c., 15 min pretreatment
# [6] = rat plasma, single dose 0.5 mg/kg s.c., drug alone, mean ± SEM
# [7] = rat plasma, single dose 1 mg/kg s.c., drug alone, mean ± SEM
# [8] = rat plasma, single dose 3 mg/kg s.c., drug alone, mean ± SEM
# [9] = pimavanserin 3 mg/kg s.c., 30 min pretreatment
# [10] = male, Sprague-Dawley, rat, in vivo, sc, 0.5 mg/kg
# [11] = male, Sprague-Dawley, rat, in vivo, sc, 1 mg/kg
# [12] = male, Sprague-Dawley, rat, in vivo, sc, 3 mg/kg
# [13] = male, Sprague-Dawley, rat, in vivo, sc, 10 mg/kg
smiles,measurement,setting,value
"C[C@H]1CNCCc2ccc(Cl)cc21 [Lorcaserin, (1R)-8-chloro-2,3,4,5-tetrahydro-1-methyl-1H-3-benzazepine]",Effect on cocaine intake (infusions),"[1]; acute lorcaserin 1 mg/kg, vs. control, p < 0.05, Fig. 1B",suppressed cocaine intake
same,Active Lever Presses,[1]; [4],536.23 ± 16.03
same,Inactive Lever Presses,[1]; [4],2.08 ± 0.40
same,Active Lever Presses,[1]; [5],492.46 ± 18.99
same,Inactive Lever Presses,[1]; [5],3.00 ± 0.91
same,Increase of latency to the first response vs. control,[2]; acute lorcaserin 1 mg/kg,~ 6.7 fold
same,Decrease of cue-reinforced lever presses vs. control,"[2]; acute lorcaserin 1 mg/kg, FA day 10, p < 0.05",~ 64.4%
same,Suppression of inactive lever presses vs. control,"[2]; acute lorcaserin 1 mg/kg, p < 0.05",~ 64.6%
same,Latency to the first response,"[2]; acute lorcaserin 1 mg/kg, p < 0.05 vs. control (14.39 ± 2.41 s)",95.83 ± 35.78 s
same,Suppression of inactive lever presses vs. control,[2]; repeated lorcaserin 1 mg/kg,n.s.
same,Decrease of cue-reinforced lever presses vs. control,"[2]; repeated lorcaserin 1 mg/kg twice daily for 10 days, FA day 10, p < 0.05",~ 36.4%
same,Latency to the first response,"[2]; repeated lorcaserin 1 mg/kg, n.s. vs. control (14.39 ± 2.41 s)",30.15 ± 5.52 s
same,AUCExtrap,[3]; [6],12.68 ± 2.45%
same,λ,[3]; [6],0.31 ± 0.03 h⁻¹
same,AUCExtrap,[3]; [7],8.06 ± 0.47%
same,λ,[3]; [7],0.39 ± 0.02 h⁻¹
same,AUCExtrap,[3]; [8],7.97 ± 0.50%
same,λ,[3]; [8],0.38 ± 0.01 h⁻¹
CC(C)COc1ccc(CNC(=O)N(Cc2ccc(F)cc2)C2CCN(C)CC2)cc1 [Pimavanserin],Effect on cocaine infusions,"[1]; acute pimavanserin 0.3, 1, 3 mg/kg, vs. control, Fig. 1A",No main effect
same,Active Lever Presses,[1]; [9],523.00 ± 54.57
same,Inactive Lever Presses,[1]; [9],3.44 ± 1.74
same,Effect on inactive lever presses,"[2]; acute and repeated pimavanserin 3 mg/kg, FA day 10",No main effect
same,Decrease of cue-reinforced lever presses vs. control,"[2]; acute pimavanserin 3 mg/kg, FA day 10, p < 0.05",~ 41.4%
same,Latency to the first response,"[2]; acute pimavanserin 3 mg/kg, n.s. vs. control (14.39 ± 2.41 s)",29.83 ± 5.43 s
same,Increase of latency to the first response vs. control,[2]; repeated pimavanserin 3 mg/kg,~ 2.5 fold
same,Decrease of cue-reinforced lever presses vs. control,"[2]; repeated pimavanserin 3 mg/kg twice daily for 10 days, FA day 10, p < 0.05",~ 27.1%
same,Latency to the first response,"[2]; repeated pimavanserin 3 mg/kg, p < 0.05 vs. control (14.39 ± 2.41 s)",35.25 ± 7.81 s
same,AUC0-inf,[3]; [10],15.02 ± 0.32 ng·h/mL
same,AUC0-t,[3]; [10],14.40 ± 0.31 ng·h/mL
same,AUCExtrap,[3]; [10],3.89 ± 1.42%
same,Cl/F,[3]; [10],556.7 ± 12.2 mL/min/kg
same,Cmax,[3]; [10],12.17 ± 0.38 ng/mL
same,"Half-life, t1/2",[3]; [10],77.4 ± 27 min
same,Tmax,[3]; [10],17.4 ± 2.4 min
same,λ,[3]; [10],0.76 ± 0.14 h⁻¹
same,Plasma concentration,"[3]; male, Sprague-Dawley, rat, in vivo, sc, 0.5 mg/kg, 0 h",0.08 ± 0.05 ng/mL
same,Plasma concentration,"[3]; male, Sprague-Dawley, rat, in vivo, sc, 0.5 mg/kg, 15 min",12.15 ± 0.39 ng/mL
same,Plasma concentration,"[3]; male, Sprague-Dawley, rat, in vivo, sc, 0.5 mg/kg, 30 min",9.93 ± 0.50 ng/mL
same,Plasma concentration,"[3]; male, Sprague-Dawley, rat, in vivo, sc, 0.5 mg/kg, 60 min",5.40 ± 0.23 ng/mL
same,Plasma concentration,"[3]; male, Sprague-Dawley, rat, in vivo, sc, 0.5 mg/kg, 120 min",2.09 ± 0.13 ng/mL
same,Plasma concentration,"[3]; male, Sprague-Dawley, rat, in vivo, sc, 0.5 mg/kg, 180 min",0.86 ± 0.11 ng/mL
same,Plasma concentration,"[3]; male, Sprague-Dawley, rat, in vivo, sc, 0.5 mg/kg, 240 min",0.45 ± 0.10 ng/mL
same,Plasma concentration,"[3]; male, Sprague-Dawley, rat, in vivo, sc, 0.5 mg/kg, 360 min",0.13 ± 0.06 ng/mL
same,AUC0-inf,[3]; [11],41.72 ± 2.7 ng·h/mL
same,AUC0-t,[3]; [11],41.27 ± 2.64 ng·h/mL
same,AUCExtrap,[3]; [11],1.09 ± 0.28%
same,Cl/F,[3]; [11],409.2 ± 30.2 mL/min/kg
same,Cmax,[3]; [11],30.13 ± 2.17 ng/mL
same,"Half-life, t1/2",[3]; [11],53.4 ± 3 min
same,λ,[3]; [11],0.79 ± 0.04 h⁻¹
same,Plasma concentration,"[3]; male, Sprague-Dawley, rat, in vivo, sc, 1 mg/kg, 0 h",0.05 ± 0.03 ng/mL
same,Plasma concentration,"[3]; male, Sprague-Dawley, rat, in vivo, sc, 1 mg/kg, 15 min",30.13 ± 2.17 ng/mL
same,Plasma concentration,"[3]; male, Sprague-Dawley, rat, in vivo, sc, 1 mg/kg, 30 min",24.50 ± 1.59 ng/mL
same,Plasma concentration,"[3]; male, Sprague-Dawley, rat, in vivo, sc, 1 mg/kg, 60 min",16.8 ± 1.02 ng/mL
same,Plasma concentration,"[3]; male, Sprague-Dawley, rat, in vivo, sc, 1 mg/kg, 120 min",6.34 ± 0.39 ng/mL
same,Plasma concentration,"[3]; male, Sprague-Dawley, rat, in vivo, sc, 1 mg/kg, 180 min",3.55 ± 0.81 ng/mL
same,Plasma concentration,"[3]; male, Sprague-Dawley, rat, in vivo, sc, 1 mg/kg, 240 min",1.12 ± 0.14 ng/mL
same,Plasma concentration,"[3]; male, Sprague-Dawley, rat, in vivo, sc, 1 mg/kg, 360 min",0.35 ± 0.08 ng/mL
same,AUCExtrap,[3]; [12],4.26 ± 0.68%
same,λ,[3]; [12],0.59 ± 0.03 h⁻¹
same,AUC0-inf,"[3]; male, Sprague-Dawley, rat, in vivo, sc, 3 mg/kg, AUC0-inf",198 ± 8.33 ng·h/mL
same,AUC0-t,"[3]; male, Sprague-Dawley, rat, in vivo, sc, 3 mg/kg, AUC0-t",189 ± 7.75 ng·h/mL
same,Cmax,"[3]; male, Sprague-Dawley, rat, in vivo, sc, 3 mg/kg, CMAX",79.5 ± 3.76 ng/mL
same,CL/F,[3]; [12],255 mL/min/kg
same,half-life,"[3]; male, Sprague-Dawley, rat, in vivo, sc, 3 mg/kg, Half-life",70.8 ± 3 min
same,concentration at 0 h,[3]; [12],0.02 ± 0.02 ng/mL
same,concentration at 15 min,[3]; [12],71.1 ± 5.89 ng/mL
same,concentration at 30 min,[3]; [12],74.5 ± 5.1 ng/mL
same,concentration at 60 min,[3]; [12],63.4 ± 3.59 ng/mL
same,concentration at 120 min,[3]; [12],39.8 ± 2.4 ng/mL
same,concentration at 180 min,[3]; [12],27.8 ± 2.37 ng/mL
same,concentration at 240 min,[3]; [12],15.7 ± 1.48 ng/mL
same,concentration at 360 min,[3]; [12],4.85 ± 0.62 ng/mL
same,Tmax,"[3]; male, Sprague-Dawley, rat, in vivo, sc, 3 mg/kg, TMAX",22.8 ± 3.6 min
same,AUCExtrap,[3]; [13],32.22 ± 4.18%
same,λ,[3]; [13],0.21 ± 0.02 h⁻¹
same,AUC0-inf,"[3]; male, Sprague-Dawley, rat, in vivo, sc, 10 mg/kg, AUC0-inf",1290 ± 112 ng·h/mL
same,AUC0-t,"[3]; male, Sprague-Dawley, rat, in vivo, sc, 10 mg/kg, AUC0-t",858 ± 54.7 ng·h/mL
same,Cmax,"[3]; male, Sprague-Dawley, rat, in vivo, sc, 10 mg/kg, CMAX",213 ± 15.9 ng/mL
same,CL/F,[3]; [13],135 mL/min/kg
same,half-life,"[3]; male, Sprague-Dawley, rat, in vivo, sc, 10 mg/kg, Half-life",218 ± 32.4 min
same,concentration at 0 h,[3]; [13],0.09 ± 0.41 ng/mL
same,concentration at 15 min,[3]; [13],170 ± 18.8 ng/mL
same,concentration at 30 min,[3]; [13],190 ± 19.9 ng/mL
same,concentration at 60 min,[3]; [13],208 ± 15.6 ng/mL
same,concentration at 120 min,[3]; [13],179 ± 11.6 ng/mL
same,concentration at 180 min,[3]; [13],154 ± 15.1 ng/mL
same,concentration at 240 min,[3]; [13],116 ± 7.99 ng/mL
same,concentration at 360 min,[3]; [13],79.9 ± 6.24 ng/mL
same,Tmax,"[3]; male, Sprague-Dawley, rat, in vivo, sc, 10 mg/kg, TMAX",57.6 ± 15 min
same,Tmax,"[3]; male, Sprague-Dawley, rat, in vivo, sc, TMAX",15 to 60 min
same,half-life,"[3]; male, Sprague-Dawley, rat, in vivo, sc",53 to 218 min
"Cc1cc2c(cc1Cl)N(C(=O)Nc1ccc(Oc3cccnc3C)nc1)CC2 [SB242084, 6-chloro-5-methyl-1-[[2-(2-methylpyrid-3-yloxy)pyrid-5-yl]carbamoyl] indolinedihydrochloride]",Effect on lorcaserin-evoked suppression of cocaine intake,"[1]; SB242084 0.5 mg/kg i.p. plus lorcaserin 1 mg/kg, p < 0.05, Fig. 1B",prevented this lorcaserin-evoked suppression of cocaine intake
